Test results from patent US11970494B2, “6-heteroaryloxy benzimidazoles and azabenzimidazoles as JAK2 inhibitors” (Ajax Therapeutics, Inc., priority 2021, dated 2024).

What follows are compounds tested against T1, JAK2 (JH1 domain-catalytic, Y1007F,Y1008F) kinase (Homo sapiens, UniProt O60674, Y1007F/Y1008F) (assay: JAK2 Binding Assay (JAK2 JH1 Domain Binding Assay)). Details: JAK2 JH1 domain binding, qPCR detection; read-out: JAK2 Kd.
T1 construct: made in house; host or cells: transiently transfected HEK293 cells
T1 sequence (O60674 849-1124 Y1007F/Y1008F limits assumed): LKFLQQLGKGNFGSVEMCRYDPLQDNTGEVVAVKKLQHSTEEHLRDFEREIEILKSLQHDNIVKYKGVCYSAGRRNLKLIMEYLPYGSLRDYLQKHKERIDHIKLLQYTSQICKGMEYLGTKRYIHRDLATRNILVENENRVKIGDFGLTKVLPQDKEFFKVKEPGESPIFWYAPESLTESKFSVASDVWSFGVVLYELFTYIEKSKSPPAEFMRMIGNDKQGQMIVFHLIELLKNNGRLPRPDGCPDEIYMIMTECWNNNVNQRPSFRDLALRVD

Kd [nM]	SMILES
10 to 50	CC(=O)Nc1cc(Oc2cnc3nc(Nc4cc(C(F)(F)F)n(C5CC6(COC6)C5)n4)n(C)c3c2C#N)ccn1 [Example I-106, N-(4-((2-((1-(2-oxaspiro[3.3]heptan-6-yl)-5-(trifluoromethyl)-1H-pyrazol-3-yl)amino)-7-cyano-1-methyl-1H-imidazo[4,5-b]pyridin-6-yl)oxy)pyridin-2-yl)acetamide]
10 to 50	COCC(=O)Nc1cc(Oc2cnc3nc(Nc4cc(C(F)(F)F)n(C5CC6(CCOCC6)C5)n4)n(C)c3c2Cl)ccn1 [Example I-107, N-(4-((2-((1-(7-oxaspiro[3.5]nonan-2-yl)-5-(trifluoromethyl)-1H-pyrazol-3-yl)amino)-7-chloro-1-methyl-1H-imidazo[4,5-b]pyridin-6-yl)oxy)pyridin-2-yl)-2-methoxyacetamide]
< 10	COCC(=O)Nc1cc(Oc2cnc3nc(Nc4cc(C(F)(F)F)n(C5CC6(CCOCC6)C5)n4)n(C)c3c2C#N)ccn1 [Example I-110, N-(4-((2-((1-(7-oxaspiro[3.5]nonan-2-yl)-5-(trifluoromethyl)-1H-pyrazol-3-yl)amino)-7-cyano-1-methyl-1H-imidazo[4,5-b]pyridin-6-yl)oxy)pyridin-2-yl)-2-methoxyacetamide]
50 to 1000	CC(=O)Nc1cc(Oc2cnc3nc(Nc4cc(N5CCCC5)nc(C(F)(F)F)c4)n(C)c3c2Cl)ccn1 [Example I-111, N-(4-((7-chloro-1-methyl-2-((2-(pyrrolidin-1-yl)-6-(trifluoromethyl)pyridin-4-yl)amino)-1H-imidazo[4,5-b]pyridin-6-yl)oxy)pyridin-2-yl)acetamide]
< 10	CC(=O)Nc1cc(Oc2cnc3nc(Nc4cc5n(n4)CCOC5(C)C)n(C)c3c2C#N)ccn1 [Example I-112, N-(4-((7-cyano-2-((4,4-dimethyl-6,7-dihydro-4H-pyrazolo[5,1-c][1,4]oxazin-2-yl)amino)-1-methyl-1H-imidazo[4,5-b]pyridin-6-yl)oxy)pyridin-2-yl)acetamide]
< 10	CC(=O)Nc1cc(Oc2cnc3nc(Nc4cc5n(n4)CCC54CCC4)n(C)c3c2C#N)ccn1 [Example I-113, N-(4-((7-cyano-2-((5′,6′-dihydrospiro[cyclobutane-1,4′-pyrrolo[1,2-b]pyrazol]-2′-yl)amino)-1-methyl-1H-imidazo[4,5-b]pyridin-6-yl)oxy)pyridin-2-yl)acetamide]
< 10	CC(=O)Nc1cc(Oc2cnc3nc(Nc4cc5n(n4)CCN5C(C)(C)C)n(C)c3c2C#N)ccn1 [Example I-115, N-(4-((2-((1-(tert-butyl)-2,3-dihydro-1H-imidazo[1,2-b]pyrazol-6-yl)amino)-7-cyano-1-methyl-1H-imidazo[4,5-b]pyridin-6-yl)oxy)pyridin-2-yl)acetamide]
10 to 50	CC(=O)Nc1cc(Oc2cnc3nc(Nc4cc5n(n4)CCN(C)C54CC4)n(C)c3c2C#N)ccn1 [Example I-119]
< 10	Cn1c(Nc2cc3n(n2)CCC32CCC2)nc2ncc(Oc3ccnc(NC(=O)O[C@H]4CCOC4)c3)c(C#N)c21 [Example I-120, (S)-tetrahydrofuran-3-yl(4-((7-cyano-2-((5′,6′-dihydrospiro[cyclobutane-1,4′-pyrrolo[1,2-b]pyrazol]-2′-yl)amino)-1-methyl-1H-imidazo[4,5-b]pyridin-6-yl)oxy)pyridin-2-yl)carbamate]
< 10	Cn1c(Nc2cc3n(n2)CCC32CCC2)nc2ncc(Oc3ccnc(NC(=O)O[C@@H]4CCOC4)c3)c(C#N)c21 [Example I-121, (R)-tetrahydrofuran-3-yl (4-((7-cyano-2-((5′,6′-dihydrospiro[cyclobutane-1,4′-pyrrolo[1,2-b]pyrazol]-2′-yl)amino)-1-methyl-1H-imidazo[4,5-b]pyridin-6-yl)oxy)pyridin-2-yl)carbamate]
< 10	Cn1cc(C(F)(F)F)cc(Nc2nc3ncc(Oc4ccnc(NC(=O)NC5COC5)c4)c(C#N)c3n2C)c1=O [Example I-123, 1-(4-((7-cyano-1-methyl-2-((1-methyl-2-oxo-5-(trifluoromethyl)-1,2-dihydropyridin-3-yl)amino)-1H-imidazo[4,5-b]pyridin-6-yl)oxy)pyridin-2-yl)-3-(oxetan-3-yl)urea]

Further lines, the compound ahead of its results:

SMILES	Kd [nM]
CC(=O)Nc1cc(Oc2cnc3nc(Nc4ccc(CN(C)C)c(C(F)(F)F)c4)n(C)c3c2Cl)ccn1 [Example I-94, N-(4-((7-chloro-2-((4-((dimethylamino)methyl)-3-(trifluoromethyl)phenyl)amino)-1-methyl-1H-imidazo[4,5-b]pyridin-6-yl)oxy)pyridin-2-yl)acetamide]	< 10
CC(=O)Nc1cc(Oc2cnc3nc(Nc4cc(OC[C@@H]5CCCN5C)cc(C(F)(F)F)c4)n(C)c3c2Cl)ccn1 [Example I-96, (S)-N-(4-((7-chloro-1-methyl-2-((3-((1-methylpyrrolidin-2-yl)methoxy)-5-(trifluoromethyl)phenyl)amino)-1H-imidazo[4,5-b]pyridin-6-yl)oxy)pyridin-2-yl)acetamide]	< 10
CC(=O)Nc1cc(Oc2cnc3nc(Nc4cc(OC[C@H]5CCCN5C)cc(C(F)(F)F)c4)n(C)c3c2Cl)ccn1 [Example I-97, (R)-N-(4-((7-chloro-1-methyl-2-((3-((1-methylpyrrolidin-2-yl)methoxy)-5-(trifluoromethyl)phenyl)amino)-1H-imidazo[4,5-b]pyridin-6-yl)oxy)pyridin-2-yl)acetamide]	< 10
CC(=O)Nc1cc(Oc2cnc3nc(Nc4cc(C(F)(F)F)n(C5CC6(COC6)C5)n4)n(C)c3c2Cl)ccn1 [Example I-98, N-(4-((2-((1-(2-oxaspiro[3.3]heptan-6-yl)-5-(trifluoromethyl)-1H-pyrazol-3-yl)amino)-7-chloro-1-methyl-1H-imidazo[4,5-b]pyridin-6-yl)oxy)pyridin-2-yl)acetamide]	< 10
CC(=O)Nc1cc(Oc2cnc3nc(Nc4cc(O[C@H]5CCN(C)C5)cc(C(F)(F)F)c4)n(C)c3c2Cl)ccn1 [Example I-99, (S)-N-(4-((7-chloro-1-methyl-2-((3-((1-methylpyrrolidin-3-yl)oxy)-5-(trifluoromethyl)phenyl)amino)-1H-imidazo[4,5-b]pyridin-6-yl)oxy)pyridin-2-yl)acetamide]	< 10
CC(=O)Nc1cc(Oc2cnc3nc(Nc4cc(O[C@@H]5CCN(C)C5)cc(C(F)(F)F)c4)n(C)c3c2Cl)ccn1 [Example I-100, (R)-N-(4-((7-chloro-1-methyl-2-((3-((1-methylpyrrolidin-3-yl)oxy)(trifluoromethyl)phenyl)amino)-1H-imidazo[4,5-b]pyridin-6-yl)oxy)pyridin-2-yl)acetamide]	< 10
CC(=O)Nc1cc(Oc2cnc3nc(Nc4cc(COC5CN(C)C5)cc(C(F)(F)F)c4)n(C)c3c2Cl)ccn1 [Example I-101, N-(4-((7-chloro-1-methyl-2-((3-(((1-methylazetidin-3-yl)oxy)methyl)-5-(trifluoromethyl)phenyl)amino)-1H-imidazo[4,5-b]pyridin-6-yl)oxy)pyridin-2-yl)acetamide]	< 10
CC(=O)Nc1cc(Oc2cnc3nc(Nc4cc(OC5CN(C)C5)cc(C(F)(F)F)c4)n(C)c3c2Cl)ccn1 [Example I-103, N-(4-((7-chloro-1-methyl-2-((3-((1-methylazetidin-3-yl)oxy)-5-(trifluoromethyl)phenyl)amino)-1H-imidazo[4,5-b]pyridin-6-yl)oxy)pyridin-2-yl)acetamide]	< 10
CC(=O)Nc1cc(Oc2cnc3nc(Nc4cc(C(C)(C)C(F)(F)F)on4)n(C)c3c2C#N)ccn1 [Example I-104, N-(4-((7-cyano-1-methyl-2-((5-(1,1,1-trifluoro-2-methylpropan-2-yl)isoxazol-3-yl)amino)-1H-imidazo[4,5-b]pyridin-6-yl)oxy)pyridin-2-yl)acetamide]	> 5000
CC(=O)Nc1cc(Oc2cnc3nc(Nc4ccc(CN(C)C)c(C(F)(F)F)c4)n(C)c3c2C#N)ccn1 [Example I-105, N-(4-((7-cyano-2-((4-((dimethylamino)methyl)-3-(trifluoromethyl)phenyl)amino)-1-methyl-1H-imidazo[4,5-b]pyridin-6-yl)oxy)pyridin-2-yl)acetamide]	< 10
